How the values were obtained:
Assay in all cases: relative viability (nuclei count vs DMSO), 5 days (fraction); higher = more cells survive
Bortezomib + Lapatinib = compound: CC(C)C[C@H](NC(=O)[C@H](Cc1ccccc1)NC(=O)c1cnccn1)B(O)O [Bortezomib] + CS(=O)(=O)CCNCc1ccc(-c2ccc3ncnc(Nc4ccc(OCc5cccc(F)c5)c(Cl)c4)c3c2)o1 [Lapatinib] (partner 2 µM)
Method in brief: (§1)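 Five library-drug doses in √10 steps were combined with a fixed anchor-drug dose, or a single drug was given alone, by pin tool to lung cancer cell lines in 1536-well plates the day after seeding. Nuclei were stained and counted after 5 days. Relative viability is the nuclei count in treated wells over that in vehicle wells, taken as the median of duplicate plates.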

Bortezomib + Alpelisib = compound: CC(C)C[C@H](NC(=O)[C@H](Cc1ccccc1)NC(=O)c1cnccn1)B(O)O [Bortezomib] + Cc1nc(NC(=O)N2CCC[C@H]2C(N)=O)sc1-c1ccnc(C(C)(C)C(F)(F)F)c1 [Alpelisib] (partner 2 µM)
Method in brief: as §1

Obatoclax + Alpelisib = compound: COC1=CC(c2cc3ccccc3[nH]2)=N/C1=C\c1[nH]c(C)cc1C [Obatoclax] + Cc1nc(NC(=O)N2CCC[C@H]2C(N)=O)sc1-c1ccnc(C(C)(C)C(F)(F)F)c1 [Alpelisib] (partner 2 µM)
Method in brief: as §1

Obatoclax + Dasatinib = compound: COC1=CC(c2cc3ccccc3[nH]2)=N/C1=C\c1[nH]c(C)cc1C [Obatoclax] + Cc1nc(Nc2ncc(C(=O)Nc3c(C)cccc3Cl)s2)cc(N2CCN(CCO)CC2)n1 [Dasatinib] (partner 0.075 µM)
Method in brief: as §1

| Cell Line | relative viability (Bortezomib + Lapatinib; first compound 0.0002 µM) | relative viability (Bortezomib + Lapatinib; first compound 0.000632 µM) | relative viability (Bortezomib + Lapatinib; first compound 0.002 µM) | relative viability (Bortezomib + Lapatinib; first compound 0.006325 µM) | relative viability (Bortezomib + Lapatinib; first compound 0.02 µM) | relative viability (Bortezomib + Alpelisib; first compound 0.0002 µM) | relative viability (Bortezomib + Alpelisib; first compound 0.000632 µM) | relative viability (Bortezomib + Alpelisib; first compound 0.002 µM) | relative viability (Bortezomib + Alpelisib; first compound 0.006325 µM) | relative viability (Bortezomib + Alpelisib; first compound 0.02 µM) | relative viability (Obatoclax + Alpelisib; first compound 0.01 µM) | relative viability (Obatoclax + Alpelisib; first compound 0.03162 µM) | relative viability (Obatoclax + Alpelisib; first compound 0.1 µM) | relative viability (Obatoclax + Alpelisib; first compound 0.3162 µM) | relative viability (Obatoclax + Alpelisib; first compound 1 µM) | relative viability (Obatoclax + Dasatinib; first compound 0.01 µM) | relative viability (Obatoclax + Dasatinib; first compound 0.03162 µM) | relative viability (Obatoclax + Dasatinib; first compound 0.1 µM) | relative viability (Obatoclax + Dasatinib; first compound 0.3162 µM) | relative viability (Obatoclax + Dasatinib; first compound 1 µM) |
| --- | --- | --- | --- | --- | --- | --- | --- | --- | --- | --- | --- | --- | --- | --- | --- | --- | --- | --- | --- | --- |
| NCI-H2087 | 0.897 | 0.951 | 0.541 | 0.114 | 0.0853 | 0.953 | 1.05 | 0.635 | 0.0664 | 0.0561 | 0.738 | 1.18 | 0.953 | 0.854 | 0.354 | 0.837 | 0.747 | 0.723 | 0.361 | 0.135 |
| EPLC-272H | – | – | 1.03 | 0.671 | 0.167 | – | – | 1.09 | 0.943 | 0.115 | 1.08 | 0.962 | 0.808 | 0.906 | 0.941 | 0.36 | 0.31 | 0.342 | 0.264 | 0.147 |
| LXF-289 | 0.908 | 0.871 | 0.949 | 0.115 | 0.104 | 1.03 | 1.01 | 0.946 | 0.0804 | 0.0589 | 1.01 | 0.944 | 1.04 | 1.04 | 0.963 | 0.23 | 0.23 | 0.0916 | 0.221 | 0.154 |
| COR-L23 | 0.814 | 1.1 | 0.771 | 0.0607 | 0.0542 | 0.825 | 0.698 | 0.444 | 0.0416 | 0.0432 | 0.765 | 0.808 | 0.675 | 0.209 | 0.182 | 0.494 | 0.488 | 0.416 | 0.285 | 0.163 |
| RERF-LC-KJ | 0.82 | 0.91 | 0.846 | 0.653 | 0.242 | 0.8 | 0.782 | 0.815 | 0.477 | 0.212 | 0.754 | 0.811 | 0.805 | 0.803 | 0.775 | 0.796 | 0.894 | 0.701 | 0.745 | 0.513 |
| NCI-H1755 | 0.991 | 0.853 | 1.04 | 0.48 | 0.155 | 0.944 | 0.926 | 0.951 | 0.178 | 0.139 | 0.871 | 0.906 | 0.871 | 0.871 | 0.889 | 0.425 | 0.402 | 0.335 | 0.44 | 0.397 |
| PC-14 | 0.323 | 0.356 | 0.354 | 0.239 | 0.0862 | 0.977 | 0.909 | 1.01 | 0.325 | 0.0573 | 0.875 | 0.92 | 0.892 | 0.775 | 0.632 | 0.285 | 0.286 | 0.225 | 0.0723 | 0.0415 |
| NCI-H322M | 0.573 | – | 0.523 | 0.541 | 0.393 | 0.771 | – | 0.713 | 0.731 | 1.38 | 0.705 | 0.819 | 0.793 | 0.889 | 0.781 | 0.257 | 0.259 | – | 0.259 | 0.28 |

From the supplement of paper PMC10307832
